Experimental data taken from patent US20030225081A1, “Pyridazinones and triazinones and medicinal use thereof” (priority 2000, published 2003).

Test system: AMPA receptor
Assay: Suppressing action to calcium influx into nerve cells induced by AMPA
Type: cell-based
Details: Fura2-AM, stimulation with 2 μM AMPA, primary culture of rat embryo cerebral cortex nerve cells, 1 μM MK-801
From the text: Suppressing Action to Calcium Influx into Nerve Cells Induced by AMPA
The suppressing action of the compounds of the present invention to calcium influx into nerve cells induced by AMPA was investigated using the primary culture system of nerve cells of cerebral cortex of embryo of rat.
Cerebral cortex was cut out from the brain of rat of gestational 18 days and treated with trypsin and DNase to disperse the cells. The cells were flown by MEM containing 10% of serum, sown in a culture bottle and astrocytes were proliferated. The astrocytes were re-dispersed by trypsin and sown in a 96-well plate. After incubation for one week, it was confirmed that the astrocytes covered all over the bottom and then the nerve cells of cerebral cortex which was dispersed by the above method were sown thereupon. After incubation for 24 hours, the medium was changed, the incubation was carried out for one week and, after that, the medium was changed to that containing 1 μM of MK-801. Nerve cells which were incubated for not shorter than 8 to 10 days were used.
Calcium influx into the cells was measured using Fura2-AM which was a calcium-sensitive fluorescent dye. It was treated in a medium containing Fura2-AM for 1 hour, incorporated into the cells, exchanged to a Tyrode solution containing 1 μM MK-801 and stimulation was carried out using 2 μM AMPA. Change in the amount of calcium flown into the cells were measured as the change in the fluorescent intensity at the exciting wave length of 340/380 nm. […] As the control compound, GYKI52466 (Le Peillet, et al., Brain Res., 571, 115, 1992) was used.

Question: With `O=C1N(c2cccnc2)CC(c2ccccn2)=NN1c1ccccc1` [Example 109, 2-Phenyl-6-(2-pyridyl)-4-(3-pyridyl)-4,5-dihydro-1,2,4-triazin-3 (2H)-one] as the compound, how does the IC50 read?
Answer: Its IC50 is 300 nM.

Question: For `O=C1N(c2ccccc2)CC(c2ncccn2)=NN1c1ccccc1` [Example 119, 2-Phenyl-4-phenyl-6-(2-pyrimidinyl)-4,5-dihydro-1,2,4-triazin-3 (2H)-one], which IC50 is on record?
Answer: Its IC50 is 4300 nM.

Question: `N#Cc1ccccc1-n1nc2c(c(-c3ccccc3)c1=O)COc1ccccc1-2` [Example 7, 2-(2-Cyanophenyl)-4-phenyl-2,3-dihydro-5H-(1)benzopyrano[4,3-c]pyridazin-3-one] was tested. Which IC50 did it give?
Answer: Its IC50 is 200 nM.

Question: With `N#Cc1ccccc1-n1nc2c(c(-c3ccccc3)c1=O)C(O)Oc1ccc(F)cc1-2` (stereo not shown) [Example 53, 2-(2-Cyanophenyl)-9-fluoro-5-hydroxy-4-phenyl-2,3-dihydro-5H-(1)benzopyrano[4,3-c]pyridazin-3-one] as the compound, how does the IC50 read?
Answer: Its IC50 is 500 nM.

Question: With `O=C1N(c2ccccc2)CC(c2ccccc2O)=NN1c1ccccc1Br` [Example 90, 2-(2-Bromophenyl)-6-(2-hydroxyphenyl)-4-phenyl-4,5-dihydro-1,2,4-triazin-3 (2H)-one] as the compound, how does the IC50 read?
Answer: Its IC50 is 900 nM.

Question: `COc1cccc(C2CC(c3ccccn3)=NN(c3ccccc3Br)C2=O)c1` (stereo not shown) [Example 1, 2-(2-Bromophenyl)-4-(3-methoxyphenyl)-6-(2-pyridyl)-4,5-dihydro-3 (2H)-pyridazinone] was tested. Which IC50 did it give?
Answer: Its IC50 is 100 nM.

Question: With `O=C1N(c2cc(O)ccc2O)CC(c2ccccc2O)=NN1c1ccccc1Br` [Example 94, 2-(2-Bromophenyl)-4-(2,5-dihydroxyphenyl)-6-(2-hydroxyphenyl)-4,5-dihydro-1,2,4-triazin-3 (2H)-one] as the compound, how does the IC50 read?
Answer: Its IC50 is 900 nM.

Question: With `O=C(NCCN1CCOCC1)c1cc(-c2ccccc2)nn(-c2ccccc2Cl)c1=O` [Example 62, 2-(2-Chlorophenyl)-4-(4-morpholinoethylaminocarbonyl)-6-phenyl-3 (2H)-pyridazinone] as the compound, how does the IC50 read?
Answer: The IC50 was 4000 nM.

Question: `COc1ccccc1N1CC(c2ccccn2)=NN(c2ccccc2C#N)C1=O` [Example 87, 2-(2-Cyanophenyl)-4-(2-methoxyphenyl)-6-(2-pyridyl)-4,5-dihydro-1,2,4-triazin-3 (2H)-one] was tested. Which IC50 did it give?
Answer: Its IC50 is 50 nM.

Question: `N#Cc1ccccc1-n1nc(-c2nccs2)cc(-c2ccccc2)c1=O` [Example 83, 2-(2-Cyanophenyl)-4-phenyl-6-(thiazol-2-yl)-3 (2H)-pyridazinone] was tested. Which IC50 did it give?
Answer: The IC50 was 600 nM.

Question: For `N#Cc1ccccc1N1N=C(c2ccccn2)CN(c2ccsc2)C1=O` [Example 101, 2-(2-Cyanophenyl)-6-(2-pyridyl)-4-(thiophene-3-yl)-4,5-dihydro-1,2,4-triazin-3 (2H)-one], which IC50 is on record?
Answer: The IC50 was 100 nM.

Question: `N#Cc1ccccc1-n1nc(-c2ccccn2)cc(-c2cccc(OCCO)c2)c1=O` [Example 4, 2-(2-Cyanophenyl)-4-[3-(2-hydroxyethoxy)phenyl]-6-(2-pyridyl)-3 (2H)-pyridazinone] was tested. Which IC50 did it give?
Answer: The IC50 was 60 nM.

Question: `N#Cc1ccccc1-n1nc(-c2ccccn2)cc(-c2ccccc2)c1=O` [Example 43, 2-(2-Cyanophenyl)-4-phenyl-6-(2-pyridyl)-3 (2H)-pyridazinone] was tested. Which IC50 did it give?
Answer: Its IC50 is 100 nM.

Question: With `O=c1c(-c2ccccc2)cc(-c2ncccn2)nn1-c1cccnc1` [Example 75, 2-(3-Pyridyl)-4-phenyl-6-(2-pyrimidinyl)-3 (2H)-pyridazinone] as the compound, how does the IC50 read?
Answer: Its IC50 is 700 nM.

Question: For `O=c1c(-c2cccc(OCc3ccccn3)c2)cc(-c2ccccn2)nn1-c1ccccc1Br` [Example 37, 2-(2-Bromophenyl)-4-[3-(2-picolyloxyphenyl)]-6-(2-pyridyl)-3 (2H)-pyridazinone], which IC50 is on record?
Answer: The IC50 was 100 nM.

Question: With `O=C1C(c2ccccc2O)CC(c2cccnc2)=NN1c1ccccc1Br` (stereo not shown) [Example 34, 2-(2-Bromophenyl)-4-(2-hydroxyphenyl)-6-(3-pyridyl)-4,5-dihydro-3 (2H)-pyridazinone] as the compound, how does the IC50 read?
Answer: Its IC50 is 300 nM.

Question: For `O=C1C(c2cccnc2)C2COc3ccccc3C2=NN1c1ccccc1Br` (stereo not shown) [Example 50, 2-(2-Bromophenyl)-4-(3-pyridyl)-2,3,4,4a-tetrahydro-5H-(1)benzopyrano[4,3-c]pyridazin-3-one], which IC50 is on record?
Answer: Its IC50 is 100 nM.

Question: Which IC50 does the source give for `Cc1cccc(N2CC(c3ccccn3)=NN(c3ccccc3Br)C2=O)c1` [Example 124, 2-(2-Bromophenyl)-4-(3-tolyl)-6-(2-pyridyl)-4,5-dihydro-1,2,4-triazin-3 (2H)-one] here?
Answer: The IC50 was 200 nM.

Question: Which IC50 does the source give for `O=c1c(-c2cccnc2)cc(-c2ccccn2)nn1-c1ccsc1` [Example 73, 2-(Thiophen-3-yl)-4-(3-pyridyl)-6-(2-pyridyl)-3 (2H)-pyridazinone] here?
Answer: The IC50 was 1100 nM.

Question: With `N#Cc1ccccc1-c1cc(-c2ccccn2)nn(-c2ccccc2)c1=O` [Example 23, 4-(2-Cyanophenyl)-2-phenyl-6-(2-pyridyl)-3 (2H)-pyridazinone] as the compound, how does the IC50 read?
Answer: The IC50 was 100 nM.

Question: With `N#Cc1ncccc1-n1nc(-c2ncccn2)cc(-c2ccccc2)c1=O` [Example 81B, 2-(2-Cyanopyridin-3-yl)-4-phenyl-6-(2-pyrimidinyl)-3 (2H)-pyridazinone] as the compound, how does the IC50 read?
Answer: The IC50 was 700 nM.

Question: Which IC50 does the source give for `N#Cc1ncccc1-n1nc(-c2ccccn2)cc(-c2ccccc2)c1=O` [Example 80B, 2-(2-Cyanopyridin-3-yl)-4-phenyl-6-(2-pyridyl)-3 (2H)-pyridazinone] here?
Answer: Its IC50 is 200 nM.

Question: With `N#Cc1ccccc1-n1nc(-c2ccccn2)cc(-c2ccccc2O)c1=O` [Example 42, 2-(2-Cyanophenyl)-4-(2-hydroxyphenyl)-6-(2-pyridyl)-3 (2H)-pyridazinone] as the compound, how does the IC50 read?
Answer: The IC50 was 100 nM.

Question: Which IC50 does the source give for `COc1ccccc1C1CC(c2cccnc2)=NN(c2ccccc2Br)C1=O` (stereo not shown) [Example 24, 2-(2-Bromophenyl)-4-(2-methoxyphenyl)-6-(3-pyridyl)-4,5-dihydro-3 (2H)-pyridazinone] here?
Answer: The IC50 was 60 nM.

Question: How did the IC50 turn out when `N#Cc1ccccc1-n1nc(-c2ccccn2)cc(-c2ccccc2Br)c1=O` [Example 47, 4-(2-Bromophenyl)-2-(2-cyanophenyl)-6-(2-pyridyl)-3 (2H)-pyridazinone] was run?
Answer: Its IC50 is 200 nM.

Question: With `O=C1C(c2ccccc2)CC(c2ccccn2)=NN1c1ccccc1Br` (stereo not shown) [Example 19, 2-(2-Bromophenyl)-4-phenyl-6-(2-pyridyl)-4,5-dihydro-3 (2H)-pyridazinone] as the compound, how does the IC50 read?
Answer: Its IC50 is 60 nM.

Question: `COc1ccc(N2CC(c3ccccn3)=NN(c3ccccc3)C2=O)c(OC)c1` [Example 107, 4-(2,4-Dimethoxyphenyl)-2-phenyl-6-(2-pyridyl)-4,5-dihydro-1,2,4-triazin-3 (2H)-one] was tested. Which IC50 did it give?
Answer: The IC50 was 300 nM.

Question: Which IC50 does the source give for `O=C1C(c2ccccc2)CC(c2ccccn2)=NN1c1ccccc1[N+](=O)[O-]` (stereo not shown) [Example 27, 4-Phenyl-2-(2-nitrophenyl)-6-(2-pyridyl)-4,5-dihydro-3 (2H)-pyridazinone] here?
Answer: The IC50 was 40 nM.

Question: How did the IC50 turn out when `O=C1C(c2ccccc2)CC(c2cccnc2)=NN1c1ccccc1Br` (stereo not shown) [Example 20, 2-(2-Bromophenyl)-4-phenyl-6-(3-pyridyl)-4,5-dihydro-3 (2H)-pyridazinone] was run?
Answer: Its IC50 is 100 nM.

Question: `O=C1N(c2ccccc2)CC(c2ncccn2)=NN1c1ccccc1Cl` [Example 129, 2-(2-Chlorophenyl)-4-phenyl-6-(2-pyrimidinyl)-4,5-dihydro-1,2,4-triazin-3 (2H)-one.] was tested. Which IC50 did it give?
Answer: The IC50 was 3000 nM.

Question: For `COc1ccccc1C1CC(c2ccccn2)=NN(c2ccccc2I)C1=O` (stereo not shown) [Example 17, 2-(2-Iodophenyl)-4-(2-methoxyphenyl)-6-(2-pyridyl)-4,5-dihydro-3 (2H)-pyridazinone], which IC50 is on record?
Answer: The IC50 was 200 nM.

Question: With `COc1ccccc1C1=NN(c2ccccc2Br)C(=O)N(c2ccccc2)C1` [Example 89, 2-(2-Bromophenyl)-6-(2-methoxyphenyl)-4-phenyl-4,5-dihydro-1,2,4-triazin-3 (2H)-one] as the compound, how does the IC50 read?
Answer: The IC50 was 5000 nM.

Question: For `O=Cc1cccc(N2CC(c3ccccn3)=NN(c3ccccc3Br)C2=O)c1` [Example 123, 2-(2-Bromophenyl)-4-(3-formylphenyl)-6-(2-pyridyl)-4,5-dihydro-1,2,4-triazin-3 (2H)-one], which IC50 is on record?
Answer: The IC50 was 300 nM.

Question: With `O=c1c(-c2cccnc2)cc(-c2ccccn2)nn1-c1ccccc1[N+](=O)[O-]` [Example 63, 2-(2-Nitrophenyl)-4-(3-pyridyl)-6-(2-pyridyl)-3 (2H)-pyridazinone] as the compound, how does the IC50 read?
Answer: Its IC50 is 300 nM.

Question: `O=C1C(c2ccccc2)CC(c2ccccn2)=NN1c1ccccc1F` (stereo not shown) [Example 28, 2-(2-Fluorophenyl)-4-phenyl-6-(2-pyridyl)-4,5-dihydro-3 (2H)-pyridazinone] was tested. Which IC50 did it give?
Answer: Its IC50 is 100 nM.

Question: With `N#Cc1ccccc1N1N=C(c2ccccn2)CN(c2ccccc2O)C1=O` [Example 96, 2-(2-Cyanophenyl)-4-(2-hydroxyphenyl)-6-(2-pyridyl)-4,5-dihydro-1,2,4-triazin-3 (2H)-one] as the compound, how does the IC50 read?
Answer: The IC50 was 600 nM.

Question: How did the IC50 turn out when `O=C1N(c2cccnc2)CC(c2ccccn2)=NN1c1ccccc1Br` [Example 110, 2-(2-Bromophenyl)-6-(2-pyridyl)-4-(3-pyridyl)-4,5-dihydro-1,2,4-triazin-3 (2H)-one] was run?
Answer: Its IC50 is 100 nM.

Question: How did the IC50 turn out when `O=C1C(c2ccccc2O)CC(c2ccccn2)=NN1c1ccccc1` (stereo not shown) [Example 33, 4-(2-Hydroxyphenyl)-2-phenyl-6-(2-pyridyl)-4,5-dihydro-3 (2H)-pyridazinone] was run?
Answer: The IC50 was 70 nM.

Question: Which IC50 does the source give for `N#Cc1ccccc1N1N=C2c3ccccc3OCC2C(c2cccnc2)C1=O` (stereo not shown) [Example 49, 2-(2-Cyanophenyl)-4-(3-pyridyl)-2,3,4,4a-tetrahydro-5H-(1) benzopyrano[4,3-c]pyridazin-3-one] here?
Answer: The IC50 was 70 nM.

Question: How did the IC50 turn out when `O=c1c(-c2ccccc2)cc(-c2ccccn2)nn1-c1ccc[n+]([O-])c1` [Example 79, 2-(3-Pyridin-1-oxide)-4-phenyl-6-(2-pyridyl)-3 (2H)-pyridazinone] was run?
Answer: Its IC50 is 7200 nM.
